Toxic doses and inconclusive results are not listed. The calls were made as follows: active = survival T/C of 150% or more; inactive = T/C below 125% in these data. Non-standard residues stand in square brackets, D forms with d. Residues, ends and D or L forms follow the SMILES beside them. ξ: configuration not given here. *: point of attachment. Trt = c1ccc(C(c2ccccc2)(c2ccccc2)*)cc1; Cbz = O=C(OCc1ccccc1)*; OtBu = CC(C)(C)O*; ξC = NC(CS)C(=O)O
Test system: CD2F1 mice, L1210 leukemia ip, survival T/C
Assay: NCI In Vivo Anticancer Drug Screen. Data for tumor model L1210 Leukemia (intraperitoneal) in CD2F1 (CDF1) mice
Conditions: higher = longer survival
Experimental: The antitumor activity of compounds was measured in mice bearing transplantable tumors. Survival or tumor size were measured and the results are expressed as the measurement made in the treated group (T) divided by the measurement made in the vehicle treated control group (C). The tumor model used in this assay is L1210 Leukemia (intraperitoneal) in CD2F1 (CDF1) mice

[1] = endpoint: mean survival time, dose: 25.0 mg/kg/injection, schedule: Q04DX002 (ip), vehicle: saline with Tween-80
[2] = endpoint: mean survival time, dose: 50.0 mg/kg/injection, schedule: Q04DX002 (ip), vehicle: saline with Tween-80
[3] = endpoint: mean survival time, dose: 200.0 mg/kg/injection, schedule: Q01DX001 (ip), vehicle: saline with Tween-80
[4] = endpoint: mean survival time, dose: 100.0 mg/kg/injection, schedule: Q04DX002 (ip), vehicle: saline with Tween-80
[5] = endpoint: mean survival time, dose: 50.0 mg/kg/injection, schedule: Q01DX009 (ip), vehicle: saline with Tween-80
[6] = endpoint: mean survival time, dose: 100.0 mg/kg/injection, schedule: Q01DX001 (ip), vehicle: saline
[7] = endpoint: mean survival time, dose: 200.0 mg/kg/injection, schedule: Q01DX001 (ip), vehicle: saline
[8] = endpoint: mean survival time, dose: 400.0 mg/kg/injection, schedule: Q01DX001 (ip), vehicle: saline
[9] = endpoint: mean survival time, dose: 100.0 mg/kg/injection, schedule: Q01DX009 (ip), vehicle: saline with Tween-80
[10] = endpoint: mean survival time, dose: 200.0 mg/kg/injection, schedule: Q01DX009 (ip), vehicle: saline with Tween-80
[11] = endpoint: mean survival time, dose: 100.0 mg/kg/injection, schedule: Q01DX001 (ip), vehicle: saline with Tween-80
[12] = endpoint: mean survival time, dose: 400.0 mg/kg/injection, schedule: Q01DX001 (ip), vehicle: saline with Tween-80
[13] = endpoint: mean survival time, dose: 100.0 mg/kg/injection, schedule: Q04DX003 (ip), vehicle: saline with Tween-80
[14] = endpoint: mean survival time, dose: 200.0 mg/kg/injection, schedule: Q04DX003 (ip), vehicle: saline with Tween-80
[15] = endpoint: mean survival time, dose: 400.0 mg/kg/injection, schedule: Q04DX003 (ip), vehicle: saline with Tween-80
[16] = endpoint: mean survival time, dose: 100.0 mg/kg/injection, schedule: Q04DX003 (ip), vehicle: other
[17] = endpoint: mean survival time, dose: 200.0 mg/kg/injection, schedule: Q04DX003 (ip), vehicle: other
[18] = endpoint: mean survival time, dose: 400.0 mg/kg/injection, schedule: Q04DX003 (ip), vehicle: other

Measured: T/C

O=[N+]([O-])C(Br)C(Br)c1ccccc1 (configuration not stated)
inactive: endpoint: mean survival time, dose: 6.25 mg/kg/injection, schedule: Q01DX001 (ip), vehicle: Klucel (hydroxypropylcellulose) (HPC) 96 % of control | endpoint: mean survival time, dose: 12.5 mg/kg/injection, schedule: Q01DX001 (ip), vehicle: Klucel (hydroxypropylcellulose) (HPC) 97 % of control | endpoint: mean survival time, dose: 25.0 mg/kg/injection, schedule: Q01DX001 (ip), vehicle: Klucel (hydroxypropylcellulose) (HPC) 91 % of control | endpoint: mean survival time, dose: 50.0 mg/kg/injection, schedule: Q01DX001 (ip), vehicle: Klucel (hydroxypropylcellulose) (HPC) 102 % of control

CC1=CC(CO)C2C(=O)NC(=O)C2C1C (configuration not stated)
inactive: endpoint: mean survival time, dose: 100.0 mg/kg/injection, schedule: Q01DX001 (ip), vehicle: Klucel (hydroxypropylcellulose) (HPC) 98 % of control | endpoint: mean survival time, dose: 200.0 mg/kg/injection, schedule: Q01DX001 (ip), vehicle: Klucel (hydroxypropylcellulose) (HPC) 105 % of control | endpoint: mean survival time, dose: 400.0 mg/kg/injection, schedule: Q01DX001 (ip), vehicle: Klucel (hydroxypropylcellulose) (HPC) 105 % of control

CCCCCCCCCCCCCCC(=O)Nc1ccccc1
inactive: endpoint: mean survival time, dose: 12.5 mg/kg/injection, schedule: Q04DX002 (ip), vehicle: saline with Tween-80 101 % of control | [1] 96 % of control | [2] 86 % of control | [3] 89 % of control

CN(C)c1nc(F)nc2c1ncn2C1OC(CO)C(O)C1O (configuration not stated)
inactive: endpoint: mean survival time, dose: 75.0 mg/kg/injection, schedule: Q01DX001 (ip), vehicle: other 100 % of control | endpoint: mean survival time, dose: 150.0 mg/kg/injection, schedule: Q01DX001 (ip), vehicle: other 109 % of control | endpoint: mean survival time, dose: 300.0 mg/kg/injection, schedule: Q01DX001 (ip), vehicle: other 109 % of control

C=C(CCCCCCCCCCCCCCCC)C(=O)O
inactive: [1] 90 % of control | [2] 87 % of control | [4] 94 % of control

CCCCCCCCCCCCCCCC[n+]1ccccc1
inactive: endpoint: mean survival time, dose: 0.78 mg/kg/injection, schedule: Q01DX009 (ip), vehicle: saline 112 % of control | endpoint: mean survival time, dose: 1.56 mg/kg/injection, schedule: Q01DX009 (ip), vehicle: saline 120 % of control | endpoint: mean survival time, dose: 3.13 mg/kg/injection, schedule: Q01DX009 (ip), vehicle: saline 120 % of control

CCCCCCCCCCCCCCCCC(C(=O)O)C(O)(CC(=O)O)C(=O)O (configuration not stated)
inactive: endpoint: mean survival time, dose: 25.0 mg/kg/injection, schedule: Q01DX009 (ip), vehicle: saline with Tween-80 90 % of control | [5] 88 % of control

COc1cccc2c1C(=O)c1c(OC)cccc1C2=O
inactive: endpoint: mean survival time, dose: 25.0 mg/kg/injection, schedule: Q01DX005 (ip), vehicle: other 104 % of control | endpoint: mean survival time, dose: 50.0 mg/kg/injection, schedule: Q01DX005 (ip), vehicle: other 101 % of control | endpoint: mean survival time, dose: 100.0 mg/kg/injection, schedule: Q01DX005 (ip), vehicle: other 101 % of control | endpoint: mean survival time, dose: 200.0 mg/kg/injection, schedule: Q01DX005 (ip), vehicle: other 97 % of control | endpoint: mean survival time, dose: 400.0 mg/kg/injection, schedule: Q01DX005 (ip), vehicle: other 93 % of control

c1ccc2c(c1)cnc1cc3c(cc12)ncc1ccccc13
inactive: [6] 98 % of control | [7] 106 % of control | [8] 116 % of control

CC#CCOCC(O)CCl (configuration not stated)
inactive: endpoint: median survival time, dose: 50.0 mg/kg/injection, schedule: Q01DX005 (ip), vehicle: saline 97 % of control | endpoint: median survival time, dose: 50.0 mg/kg/injection, schedule: Q01DX005 (ip), vehicle: suspension in saline 104 % of control | endpoint: median survival time, dose: 100.0 mg/kg/injection, schedule: Q01DX005 (ip), vehicle: saline 94 % of control | endpoint: median survival time, dose: 100.0 mg/kg/injection, schedule: Q01DX005 (ip), vehicle: suspension in saline 101 % of control | endpoint: median survival time, dose: 200.0 mg/kg/injection, schedule: Q01DX005 (ip), vehicle: saline 97 % of control | endpoint: median survival time, dose: 200.0 mg/kg/injection, schedule: Q01DX005 (ip), vehicle: suspension in saline 96 % of control | endpoint: median survival time, dose: 400.0 mg/kg/injection, schedule: Q01DX005 (ip), vehicle: saline 117 % of control

COc1cc(OC)c(NC(=O)Oc2ccc(F)cc2Cl)cc1Cl
inactive: [5] 88 % of control | [9] 100 % of control | [10] 103 % of control

C1CC[N-]CC1.[Cl][Pt+2][Cl].[NH2-]
inactive: endpoint: mean survival time, dose: 6.25 mg/kg/injection, schedule: Q04DX003 (ip), vehicle: distilled water + Tween-80 100 % of control | endpoint: mean survival time, dose: 12.5 mg/kg/injection, schedule: Q04DX003 (ip), vehicle: distilled water + Tween-80 96 % of control | endpoint: mean survival time, dose: 25.0 mg/kg/injection, schedule: Q04DX003 (ip), vehicle: distilled water + Tween-80 94 % of control | endpoint: mean survival time, dose: 50.0 mg/kg/injection, schedule: Q04DX003 (ip), vehicle: distilled water + Tween-80 91 % of control

COC1OC(CCl)C(Cl)C(OC)C1OC (configuration not stated)
inactive: [11] 96 % of control | [3] 91 % of control | [12] 87 % of control

CC(C)(C)OC(=O)CNC(=O)CNC(=O)CNC(=O)C(CSC(c1ccccc1)(c1ccccc1)c1ccccc1)NC(=O)OCc1ccccc1 (configuration not stated) (Cbz-[ξC](Trt)GGG-OtBu)
inactive: [13] 101 % of control | [14] 95 % of control | [15] 92 % of control

O=S(=O)(CC(I)c1ccccc1)c1ccccc1 (configuration not stated)
inactive: endpoint: mean survival time, dose: 75.0 mg/kg/injection, schedule: Q01DX009 (ip), vehicle: saline 99 % of control | endpoint: mean survival time, dose: 150.0 mg/kg/injection, schedule: Q01DX009 (ip), vehicle: saline 91 % of control | endpoint: mean survival time, dose: 300.0 mg/kg/injection, schedule: Q01DX009 (ip), vehicle: saline 92 % of control

O=C(O)C(NC1CCCCC1)c1ccccc1 (configuration not stated)
inactive: [5] 95 % of control | [9] 103 % of control | [13] 92 % of control | [10] 92 % of control | [14] 93 % of control

O=C(O)CCCCCCCCCCCCCCCCCCCCC(=O)O
inactive: [13] 87 % of control | [14] 102 % of control | [15] 87 % of control

O=C(O)C1CCCN1C(=O)C(CSC(c1ccccc1)(c1ccccc1)c1ccccc1)NC(c1ccccc1)(c1ccccc1)c1ccccc1 (configuration not stated)
inactive: endpoint: mean survival time, dose: 50.0 mg/kg/injection, schedule: Q01DX009 (ip), vehicle: saline 101 % of control | endpoint: mean survival time, dose: 100.0 mg/kg/injection, schedule: Q01DX009 (ip), vehicle: saline 97 % of control | endpoint: mean survival time, dose: 200.0 mg/kg/injection, schedule: Q01DX009 (ip), vehicle: saline 98 % of control | endpoint: mean survival time, dose: 400.0 mg/kg/injection, schedule: Q01DX009 (ip), vehicle: saline 97 % of control

CCCCN(C)c1ccc(N=Nc2cc(Cl)ccc2Cl)cc1
inactive: [1] 96 % of control | [2] 101 % of control | [4] 104 % of control

CN(C)C(=S)SCc1ccc(Cl)cc1
inactive: [16] 93 % of control | [17] 102 % of control | [18] 100 % of control

O/N=C1/C2CCC(C2)C1C(O)(C(F)(F)F)C(F)(F)F (configuration not stated)
inactive: [5] 93 % of control | [11] 102 % of control | [9] 101 % of control | [3] 92 % of control | [10] 89 % of control

c1ccc(CN2CCCCc3ccccc32)cc1
inactive: [5] 100 % of control | [9] 98 % of control | [10] 104 % of control

C[Si](C)c1cccc(Cl)c1
inactive: [9] 104 % of control | [10] 100 % of control

COc1ccc(O)c(CC(C)C)c1
inactive: endpoint: mean survival time, dose: 100.0 mg/kg/injection, schedule: Q01DX009 (ip), vehicle: acetone 100 % of control | endpoint: mean survival time, dose: 200.0 mg/kg/injection, schedule: Q01DX009 (ip), vehicle: acetone 104 % of control | endpoint: mean survival time, dose: 400.0 mg/kg/injection, schedule: Q01DX009 (ip), vehicle: acetone 96 % of control

BrCC12CCC1(CBr)COC2 (configuration not stated)
inactive: [16] 102 % of control | [17] 107 % of control | [18] 96 % of control

CCOC(=O)c1[nH]c2cccc3c2c1CC(Br)C3=O (configuration not stated)
inactive: endpoint: median survival time, dose: 12.5 mg/kg/injection, schedule: Q01DX009 (ip), vehicle: saline with Tween-80 120 % of control | endpoint: median survival time, dose: 25.0 mg/kg/injection, schedule: Q01DX009 (ip), vehicle: saline with Tween-80 109 % of control | endpoint: median survival time, dose: 50.0 mg/kg/injection, schedule: Q01DX009 (ip), vehicle: saline with Tween-80 109 % of control | endpoint: median survival time, dose: 100.0 mg/kg/injection, schedule: Q01DX009 (ip), vehicle: saline with Tween-80 107 % of control

CC1(C)OC2COC(c3cc(C(N)=O)n[nH]3)C2O1 (configuration not stated)
inactive: [11] 106 % of control | [3] 101 % of control | [12] 105 % of control

NC(N)=NCCCC(NC(c1ccccc1)(c1ccccc1)c1ccccc1)C(=O)O (configuration not stated)
inactive: [6] 88 % of control | [7] 92 % of control | [8] 98 % of control

From PubChem BioAssay AID256 (DTP/NCI, 2004)
